Experimental data taken from patent publication US12636810B2, “Wood preservative composition comprising 4,5-dichloro-2-octylisothiazol-3(2H)-one, a method treating a wood substrate therewith, and a wood product produced therefrom” (KOPPERS PERFORMANCE CHEMICALS, INC., priority 2021, dated 2026).

Test: Organic solvent solvency with DCOI and retaining additive testing
Assay type: physicochemical
Design: key: Low: low solvency; Medium: medium solvency; High: high solvency
Settings: 23.5% DCOI and 25.0% Chempol 801-2164 in the solvent; 40 degrees Fahrenheit; separation, precipitation, turbidity
Method: For testing the solvency (i.e., ability to dissolve) of the organic solvent for DCOI and the retaining additive, 4.7 gram of DCOI and 5.0 g of retaining additive were dissolved in 10.3 gram of organic solvent to make a 23.5% of DCOI and 25.0% resin solution in a clear 20 ml glass vial. Thereafter, the vial is stored at a selected temperature (i.e., ambient temperature, 40 degrees Fahrenheit, or 120 degree Fahrenheit or whenever a crosslinking may occur). The vial is monitored for up to 7 days for phase separation, precipitation, and turbidity, which may indicate incompatibility between the organic solvent and the retaining additive and/or DCOI. The as prepared solution is maintained at room temperature and 40 degrees Fahrenheit for up to 7 days or whenever a phase separation, precipitation or solution turbidity event happens to disqualify the solution.
The solvents were tested at 40 degrees Fahrenheit and rated low solvency, medium solvency, or high solvency based on the amount, if any, of separation, precipitation, and turbidity observed in each solution.

**Q.** Which “DCOI/Resin Solvency” value does the source give for `OCc1ccccc1` [Benzyl Alcohol] here?
**A.** Its value is “High”.
